One data set concerns the target T1, p101/p110γ protein (PI3Kγ) (Homo sapiens, UniProt P48736).
T1 construct: HA; made in house; host or cells: Spodoptera frugiperda (Sf9) cells, baculovirus coinfection
Briefly: PI3Kγ In Vitro Kinase Assay. It is filed as biochemical. As to conditions: purified recombinant p101/p110γ with G protein β1/γ2 subunits; 20 μM ATP, [γ-32P-ATP]; 25 μM PIP2 lipid micelles; 20 minutes at room temperature. On the procedure: Spodtera frugiperda cells, grown in ESF921 media, were coinfected with baculovirus expressing a glu-tagged p101 and baculovirus expressing an HA-tagged p110γ, at a 3:1 ratio of p101 baculovirus to p110γ baculovirus. Sf9 cells were grown to 1×10^7 total cells/mL in 10L bioreactors and harvested 48-72 hours post infection. Samples of infected cells were then tested for expression of p101/p110γ PI3 kinase by immunoprecipitation and Western Blot analysis methods (see below). To purify PI3Kγ, 4 volumes of room temperature hypotonic lysis buffer (1 mM MgCl2, 1 mM DTT, 5 mM EGTA, 1 mM Pefabloc, 0.5 μM aprotinin, 5 μM leupeptin, 2 μM pepstatin, 5 μM E64, pH 8) per gram of cell paste, was poured onto frozen cell pellets with stirring, then lysed in a nitrogen “bomb” at 400 psi (599HC […], Parr Instrument Co, Moline, Ill.). NaCl was added to 150 mM, and sodium cholate was added to 1% and mixed for another 45 minutes. The lysates were clarified by centrifugation for 25 minutes at 14,000 rpm. The lysates were then loaded over anti-glu-linked Protein-G Sepaharose beads (Covance Research Products, Richmond, Calif.) using 20 mL resin/50 g cell paste. The column was washed with 15 volumes of wash buffer (1 mM DTT, 0.2 mM EGTA, 1 mM Pefabloc, 0.5 μM aprotinin, 5 μM leupeptin, 2 μM pepstatin, 5 μM E64, 150 mM NaCl, 1% sodium cholate, pH 8). PI3Kγ was eluted with 6 column volumes of wash buffer that contain 100 μg/mL of a peptide that competes for binding of the glu tag. The column fractions with the eluted protein (determined by taking OD280 readings) were collected and dialyzed in 0.2 mM EGTA, 1 mM DTT, 1 mM Pefabloc, 5 μM leupeptin, 0.5% sodium cholate, 150 mM NaCl, and 50% glycerol, pH 8. The fractions were stored at -80° C. until further use. Spodtera frugiperda cells were coinfected with baculovirus expressing a glu-tagged G protein β1 and baculovirus expressing a G protein […], at a 1:1 ratio of glu-tagged G protein β1 baculovirus to G protein β2 baculovirus. Sf9 cells are grown in 10 L bioreactors and harvested 48-72 hours post infection. Samples of infected cells were tested for G protein β1/β2 expression by Western Blot analysis, as described below. Cell lysates were homogenized and loaded onto a column of glu-tagged beads as in Biological Example 1 and competed off the column with a glu peptide and processed as described in Biological Example 1. The inhibitory properties of the compounds in Table 1 were assayed in an in vitro PI3K assay. In a 96-well polypropylene plate, each well was spotted with 2 μL of 50 times the desired final concentration of compound in DMSO. Purified recombinant p101/p110γ protein (0.03 μg; 2.7 nM) and G protein β1/γ2 subunits (0.09 μg; 57.7 nM) for each reaction was combined in the assay buffer (30 mM HEPES, 100 mM NaCl, 1 mM EGTA, and 1 mM DTT). ATP and [γ-^32P-ATP] (0.09 μCi) were added to this mixture so that the final ATP concentration in the reaction was 20 μM. Lipid micelles were formed by sonicating phosphatidylinositol-4,5-diphosphate (PIP2), phosphatidylethanolamine (PE), and Na-cholate in the assay buffer for 10 minutes, adding MgCl2 and incubating on ice for 20 minutes, for final concentrations of 25 μM PIP2, 300 μM PE, 0.02% Na-cholate, and 10 mM MgCl2 in the reaction. The reactions were started by adding equal volumes lipid and enzyme mixture in a total volume of 50 μL, allowed to run for 20 minutes at room temperature, and stopped with 100 μL 75 mM H3PO4. The lipid product was transferred to a glass fiber filter plate and washed with 74 mM H3PO4 several times. The presence of radioactive lipid product (PIP3) was measured by adding Wallac Optiphase mix to each well and counting in a Wallac 1450 Trilux plate reader (PerkinElmer Life Sciences Inc., Boston, Mass. 02118). The IC50 for each compound tested is reported in μM in Table 1: […]
T1 sequence (P48736 whole entry, species assumed): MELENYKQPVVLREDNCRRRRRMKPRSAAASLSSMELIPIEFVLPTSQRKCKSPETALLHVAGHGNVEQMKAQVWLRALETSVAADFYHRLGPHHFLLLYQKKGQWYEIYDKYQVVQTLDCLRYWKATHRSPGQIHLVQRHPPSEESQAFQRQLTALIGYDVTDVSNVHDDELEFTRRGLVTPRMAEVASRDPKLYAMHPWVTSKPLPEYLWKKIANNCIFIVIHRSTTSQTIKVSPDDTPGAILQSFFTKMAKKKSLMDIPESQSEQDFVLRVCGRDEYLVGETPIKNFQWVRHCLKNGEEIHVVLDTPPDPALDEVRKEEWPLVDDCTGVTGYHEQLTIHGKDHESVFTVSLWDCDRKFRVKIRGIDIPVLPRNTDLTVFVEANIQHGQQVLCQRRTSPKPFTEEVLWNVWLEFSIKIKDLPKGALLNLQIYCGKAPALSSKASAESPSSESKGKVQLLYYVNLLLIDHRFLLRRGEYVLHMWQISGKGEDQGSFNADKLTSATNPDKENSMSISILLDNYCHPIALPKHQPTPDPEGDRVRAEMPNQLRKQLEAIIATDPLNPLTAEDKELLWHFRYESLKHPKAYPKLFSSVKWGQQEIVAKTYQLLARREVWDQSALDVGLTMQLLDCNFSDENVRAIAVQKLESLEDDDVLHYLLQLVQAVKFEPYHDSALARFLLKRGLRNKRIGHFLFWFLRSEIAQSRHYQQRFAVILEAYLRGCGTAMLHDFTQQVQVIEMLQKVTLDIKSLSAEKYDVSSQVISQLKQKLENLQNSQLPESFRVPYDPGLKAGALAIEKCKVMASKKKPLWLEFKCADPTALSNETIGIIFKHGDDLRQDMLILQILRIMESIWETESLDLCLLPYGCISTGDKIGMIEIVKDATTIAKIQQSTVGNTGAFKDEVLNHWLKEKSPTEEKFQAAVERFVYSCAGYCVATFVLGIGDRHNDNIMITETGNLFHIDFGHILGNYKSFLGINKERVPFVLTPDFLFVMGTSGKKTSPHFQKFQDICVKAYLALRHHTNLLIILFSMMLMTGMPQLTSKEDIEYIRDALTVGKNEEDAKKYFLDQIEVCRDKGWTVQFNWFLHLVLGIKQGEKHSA
T1 sequence (Q8WYR1 whole entry partner, species assumed): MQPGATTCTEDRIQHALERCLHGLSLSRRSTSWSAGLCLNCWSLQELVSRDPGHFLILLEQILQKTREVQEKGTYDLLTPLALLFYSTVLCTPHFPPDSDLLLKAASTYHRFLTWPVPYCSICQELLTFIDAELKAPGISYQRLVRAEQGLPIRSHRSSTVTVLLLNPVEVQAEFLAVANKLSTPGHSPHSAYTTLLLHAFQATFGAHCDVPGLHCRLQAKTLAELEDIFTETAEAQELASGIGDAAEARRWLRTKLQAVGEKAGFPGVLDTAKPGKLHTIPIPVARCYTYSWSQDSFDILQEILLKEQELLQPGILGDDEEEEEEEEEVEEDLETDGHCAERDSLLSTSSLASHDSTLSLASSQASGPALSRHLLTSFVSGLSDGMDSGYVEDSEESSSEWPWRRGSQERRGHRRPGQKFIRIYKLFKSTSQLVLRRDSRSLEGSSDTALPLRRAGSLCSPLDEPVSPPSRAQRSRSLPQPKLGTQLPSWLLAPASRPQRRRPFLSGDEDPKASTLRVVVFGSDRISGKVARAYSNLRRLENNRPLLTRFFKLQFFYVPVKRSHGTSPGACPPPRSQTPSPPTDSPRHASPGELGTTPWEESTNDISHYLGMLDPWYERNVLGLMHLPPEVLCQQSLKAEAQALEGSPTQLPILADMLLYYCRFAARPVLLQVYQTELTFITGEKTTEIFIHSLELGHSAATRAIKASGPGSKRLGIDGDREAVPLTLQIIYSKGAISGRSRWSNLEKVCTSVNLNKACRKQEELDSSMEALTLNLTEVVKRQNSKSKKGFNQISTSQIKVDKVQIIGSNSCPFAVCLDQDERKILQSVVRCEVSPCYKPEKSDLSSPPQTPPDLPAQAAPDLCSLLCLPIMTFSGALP
The IC50 is the midpoint of a concentration-inhibition curve. Consider `O=C(Nc1nnn[nH]1)c1oc2ccc(Cl)cc2c1OC1CCCCCC1` [Example 36, 5-Chloro-3-cycloheptyloxy-benzofuran-2-carboxylic acid (1H-tetrazol-5-yl)-amide], for which the IC50 worked out at 950 nM.

On to `O=C(Nc1nnn[nH]1)c1oc2ccc(Cl)cc2c1OCC1CC1` [Example 44, 5-Chloro-3-cyclopropylmethoxy-benzofuran-2-carboxylic acid (1H-tetrazol-5-yl)-amide], for which the IC50 turned out to be 9420 nM.

As for “3-Cycloheptylmethoxy-5-methoxy-benzofuran-2-carboxylic acid (1H-tetrazol-5-yl)-amide [Example 29]”, the IC50 worked out at 108 nM.

“5-Chloro-3(1-methyl-cyclopropoxymethoxy)-benzofuran-2-carboxylic acid (1H-tetrazol-5-yl)-amide [Example 34]”: the IC50 stood at 1460 nM.

For the compound `O=C(Nc1nnn[nH]1)c1oc2ccc(Cl)cc2c1OCC1CCC1` [Example 35, 5-Chloro-3-cyclobutylmethoxy-benzofuran-2-carboxylic acid (1H-tetrazol-5-yl)-amide], the IC50 was determined as 3100 nM.

Consider `C=C(C)C1CCC(C)C(Oc2c(C(=O)Nc3nnn[nH]3)oc3ccc(OC)cc23)C1` (stereo not drawn) [Example 7, 3-(5-Isopropenyl-2-methyl-cyclohexyloxy)-5-methoxy-benzofuran-2-carboxylic acid (1H-tetrazol-5-yl)-amide], for which the 50% inhibitory concentration (IC50) worked out at 700 nM.

For the compound `COc1ccc2oc(C(=O)Nc3nnn[nH]3)c(OC3CCCCC3C)c2c1` (stereo not drawn) [Example 5, 5-Methoxy-3-(2-methyl-cyclohexyloxy)-benzofuran-2-carboxylic acid (1H-tetrazol-5-yl)-amide], the IC50 came out at 180 nM.

For `COc1ccc2oc(C(=O)Nc3nnn[nH]3)c(OC3CCCCC3C)c2c1` (stereo not drawn) [Example 18, 5-Methoxy-3-(2-methyl-cyclohexyloxy)-benzofuran-2-carboxylic acid (1H-tetrazol-5-yl)-amide], the IC50 was determined as 130 nM.

In the case of `CC1CCC(Oc2c(C(=O)Nc3nnn[nH]3)oc3ccc(Cl)cc23)CC1C` (stereo not drawn) [Example 40, 5-Chloro-3-(3,4-dimethyl-cyclohexyloxy)-benzofuran-2-carboxylic acid (1H-tetrazol-5-yl)-amide], the IC50 was 1100 nM.

On to “5-Methoxy-3-(6-methyl-cyclohex-3-enylmethoxy)-benzofuran-2-carboxylic acid (1H-tetrazol-5-yl)-amide [Example 16]”, for which the IC50 was determined as 185 nM.

Take “3-Cycloheptyloxy-5-methoxy-benzofuran-2-carboxylic acid (1H-tetrazol-5-yl)-amide [Example 26]”: the IC50 was found to be 97 nM.

Regarding `O=C(Nc1nnn[nH]1)c1oc2ccc(Cl)cc2c1OCC1CCCC1` [Example 38, 5-Chloro-3cyclopentylmethoxy-benzofuran-2-carboxylic acid (1H-tetrazol-5-yl)-amide], the IC50 was 1040 nM.

For the compound `CC(Oc1c(C(=O)Nc2nnn[nH]2)oc2ccc(Cl)cc12)C1CCCC1` (stereo not drawn) [Example 39, 5-Chloro-3-(1-cyclopentyl-ethoxy)-benzofuran-2-carboxylic acid (1H-tetrazol-5-yl)-amide], the IC50 came out at 2700 nM.

As to `O=C(Nc1nnn[nH]1)c1oc2ccc(Cl)cc2c1OC1CCCCC1` [Example 42, 5-Chloro-3-cyclohexyloxy-benzofuran-2-carboxylic acid (1H-tetrazol-5-yl)-amide], the IC50 is 645 nM.

For the compound “5-Methoxy-3-(1-methyl-cyclomethoxy)-benzofuran-2-carboxylic acid (1H-tetrazol-5-yl)-amide [Example 24]”, the IC50 is 220 nM.

Take `CC1CC(C)CC(Oc2c(C(=O)Nc3nnn[nH]3)oc3ccc(Cl)cc23)C1` (stereo not drawn) [Example 41, 5-Chloro-3-(3,5-dimethyl-cyclohexyloxy)-benzofuran-2-carboxylic acid (1H-tetrazol-5-yl)-amide]: the IC50 stood at 480 nM.

Take `COc1ccc2oc(C(=O)Nc3nnn[nH]3)c(OC3CCCC(C)C3)c2c1` (stereo not drawn) [Example 14, 5-Methoxy-3-(3-methyl-cyclohexyloxy)-benzofuran-2-carboxylic acid (1H-tetrazol-5-yl)-amide]: the IC50 came to 67 nM.

With `O=C(Nc1nnn[nH]1)c1oc2ccc(Cl)cc2c1OC1CCC1` [Example 37, 5-Chloro-3-cyclobutoxy-benzofuran-2-carboxylic acid (1H-tetrazol-5-yl)-amide], the IC50 was 2020 nM.

For `COc1ccc2oc(C(=O)Nc3nnn[nH]3)c(OC3CC(C)CC(C)C3)c2c1` (stereo not drawn) [Example 17, 3-(3,5-Dimethyl-cyclohexyloxy)-5-methoxy-benzofuran-2-carboxylic acid (1H-tetrazol-5-yl)-amide], the IC50 is 100 nM.

With `COc1ccc2oc(C(=O)Nc3nnn[nH]3)c(OC3CCCC3C)c2c1` (stereo not drawn) [Example 8, 5-Methoxy-3-(2-methyl-cyclopentyloxy)-benzofuran-2-carboxylic acid (1H-tetrazol-5-yl)-amide], the IC50 was found to be 305 nM.

Tested on in a further data set: not given
Test: not given
Details: not given
In general, melting point refers to the temperature of the solid-liquid transition. For the compound `O=C(Nc1nnn[nH]1)c1oc2ccc(Cl)cc2c1OCC1CC1` [Example 44, 5-Chloro-3-cyclopropylmethoxy-benzofuran-2-carboxylic acid (1H-tetrazol-5-yl)-amide], the melting point lay in the range of 243 to 244 °C.

Source of the values: US20050020631A1, “3-Substituted benzofurans as therapeutic agents” (priority 2003, published 2005).
